Experimental findings from PubChem BioAssay (NCI) are described below.

Holding throughout (assay): NCI anticancer screen, dose series, 48 h
The test system of experiment [1] is RPMI-8226 leukemia.
Experiment [2] relates to OVCAR-4 ovarian.
Experiment [3] concerns OVCAR-8 ovarian.
In experiment [4] the test system is UO-31 renal.
In experiment [5] the test system is ACHN renal.
Experiment [6] has as its system SF-295 CNS.
For experiment [7], the system named is RXF 393 renal.
In experiment [8] the test system is 786-0 renal.
In experiment [9] the test system is LOX IMVI melanoma.
For experiment [10], the system named is K-562 leukemia.

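These data come from cells grown in 96-well plates and exposed to compound for 48 hours at five concentrations. TGI marks complete inhibition of growth.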

On to `Cc1cc(C)nc(NS(=O)(=O)c2ccc(NC(=O)c3ccc4nc5ccccc5c(Nc5ccc(S(=O)(=O)Nc6nc(C)cc(C)n6)cc5)c4c3)cc2)n1`, for which the TGI in [1], in experiment [2], in [3], in experiment [4], in experiment [5] and in experiment [6] was above 100 µM each time. Besides, the TGI in experiment [7] was above 100 µM; in experiment [8], above 100 µM; in experiment [9] it was 43.4 µM; in [10], above 100 µM.
Consider `CCN(CC)c1ccc2cc(-c3csc(-c4ccc(N(C)C)cc4)n3)c(=O)oc2c1`, for which the TGI in [1], in experiment [2], in experiment [3], in experiment [4], in experiment [5] and in experiment [6] was above 100 µM throughout. Besides, the TGI in [7], in [8], in experiment [9] and in experiment [10] was above 100 µM throughout.
For the compound `CCOC(=O)C(C(=O)OCC)C(NC(=O)Nc1cc(C(F)(F)F)ccc1OC)(C(F)(F)F)C(F)(F)F`, the TGI in experiment [1] was 56.8 µM; in experiment [2], 98.6 µM; in experiment [3] it was above 100 µM; in experiment [4] it was 39.5 µM; in experiment [5], above 100 µM; in experiment [6], 84.8 µM. The TGI in experiment [7] was 62.3 µM; in experiment [8], 55.8 µM; in [9], above 100 µM; in experiment [10], 74.5 µM.
Turning to `NNC(=O)CSc1nnc(CCCCCCCCc2nnc(SCC(=O)NN)o2)o1`, the TGI in [1], in experiment [2], in experiment [3], in experiment [4], in [5] and in experiment [6] was above 100 µM each time. Besides, the TGI in [7], in [8], in experiment [9] and in [10] was above 100 µM in each case.
For the compound `C/C(CC(O)(C(F)(F)F)C(F)(F)F)=N/Nc1ccc([N+](=O)[O-])cc1[N+](=O)[O-]`, the TGI was 5.91 µM in experiment [1]; above 10 µM in experiment [2]; above 10 µM in experiment [3]; above 10 µM in experiment [4]; above 10 µM in experiment [5]; above 10 µM in experiment [6]. For the same compound, the TGI in experiment [7] is 7.53 µM; in experiment [8], above 10 µM; in experiment [9], above 10 µM; in experiment [10] it was 9.56 µM.
Regarding `O=c1ccc2nc3ccc(O)cc3oc-2c1`, the TGI was 30.8 µM in experiment [1]; above 100 µM in [2]; above 100 µM in experiment [3]; above 100 µM in experiment [4]; above 100 µM in experiment [5]; above 100 µM in experiment [6]. In addition, the TGI is above 100 µM in experiment [7], above 79.6 µM in experiment [8], 7.86 µM in experiment [9] and 34.7 µM in experiment [10].
With `COc1cc(OC)cc(Oc2nc3c(N)cc(C(F)(F)F)cc3nc2-c2ccccc2)c1`, the TGI in [1] is 77.7 µM; in [2], above 100 µM; in experiment [3], above 100 µM; in experiment [4], above 100 µM; in experiment [5], above 100 µM; in experiment [6] it was above 100 µM. For the same compound, the TGI was above 100 µM in experiment [7], above 100 µM in [8], 45.9 µM in experiment [9] and 31.4 µM in experiment [10].
In the case of `S=c1sscc1N1CCSc2ssc(=S)c21`, the TGI in experiment [1] is above 100 µM; in experiment [2] it was 29.8 µM; in experiment [3] it was 18.9 µM; in experiment [4] it was above 100 µM; in experiment [5], above 100 µM; in experiment [7], above 100 µM. Besides, the TGI in experiment [8], in experiment [9] and in experiment [10] was above 100 µM in each case.
For the compound `CCOC(=O)/C=C1\C[C@H](NC(=O)OCc2ccccc2)C(=O)N1CC(=O)OCC`, the TGI in [1], in experiment [2], in experiment [3], in experiment [4], in [5] and in experiment [6] was above 100 µM each time. Further, the TGI in experiment [7], in [8] and in [10] was above 100 µM throughout.
In the case of `COC(=O)c1ccccc1Nc1ccccc1C(=O)OC`, the TGI in [1], in experiment [2], in experiment [3], in experiment [5], in [6] and in [7] was above 100 µM in each case. Further, the TGI in [8], in experiment [9] and in experiment [10] was above 100 µM throughout.
On to `O[C@H]1[C@@H]2OC[C@@H](O)[C@H](OCc3ccccc3)[C@@](COCc3ccccc3)(O2)[C@@H]1OCc1ccccc1`, for which the TGI is 31.9 µM in [1]; 24.4 µM in [2]; 31 µM in experiment [3]; 30.6 µM in experiment [4]; 30.4 µM in [5]; 26.1 µM in experiment [6]. Also, the TGI in experiment [7] was found to be 39.8 µM; in experiment [8], 45.4 µM; in experiment [9], 32.7 µM; in experiment [10] it was 67 µM.
For `O=c1cc(-c2cccc(Br)c2)[nH]c2cc3c(cc12)OCO3`, the TGI is above 100 µM in [1]; above 100 µM in experiment [2]; 17.3 µM in experiment [3]; 37.9 µM in experiment [4]; 24.4 µM in experiment [5]; 6.52 µM in experiment [6]. The TGI in [7] was 14.3 µM; in experiment [8] it was 12.9 µM; in experiment [9] it was 17.4 µM; in experiment [10] it was above 100 µM.
As to `CC(C)C(=O)CP(=O)(O)O`, the TGI in experiment [1], in experiment [2], in experiment [3], in [5], in [6] and in experiment [7] was above 100 µM in each case. In addition, the TGI in experiment [8], in [9] and in experiment [10] was above 100 µM throughout.
For `CC(=O)Nc1ccc2c3c(cc(O)c2c1)N(C(=O)CCCCCC(=O)Nc1ccc2c4c(cc(O)c2c1)N(C(=O)OC(C)(C)C)CC4CCl)CC3CCl` (stereo unspecified), the TGI was above 34.6 µM in experiment [1]; above 63.6 µM in [2]; 15.2 µM in experiment [3]; above 100 µM in experiment [4]; above 100 µM in experiment [5]; above 45.9 µM in experiment [6]. Moreover, the TGI in [7] was 2.69 µM; in experiment [8] it was 10.1 µM; in experiment [9], 18.2 µM; in [10], above 100 µM.
